Experimental data taken from patent US9101638B2, “Boronic acid derivatives and therapeutic uses thereof” (Rempex Pharmaceuticals, Inc., priority 2013, dated 2015).

Legend:
KP1005 (CTX-M-14) = assay: Potentiation of aztreonam, strain KP1005; format: cell-based
ec308 (SHV-5) [1] = assay: Potentiation of aztreonam, strain ec308; format: cell-based; settings: minimum BLI concentration inhibiting growth with 4 μg/mL aztreonam
ec302 (TEM-10) = assay: Potentiation of aztreonam, strain ec302; format: cell-based
KP1004 (K-2) = assay: Potentiation of aztreonam, strain KP1004; format: cell-based; settings: minimum BLI concentration inhibiting growth with 4 μg/mL aztreonam
ec308 (SHV-5) [2] = assay: Potentiation of tigemonam, strain ec308; format: cell-based; settings: minimum BLI concentration inhibiting growth with 4 μg/mL tigemonam
EC1010 (CMY-6) = format: cell-based
KPC-2 = KPC-2 (Klebsiella pneumoniae, UniProt Q9F663); assay: Inhibition of nitrocefin cleavage by purified KPC-2; format: biochemical; settings: nitrocefin reporter substrate, purified enzyme; read-out: Ki (KPC-2, NCF)
Procedure, shortened: (§1)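 10 min RT preincubation, enzyme with inhibitor series in reaction buffer. Substrate nitrocefin; kinetic read 490 nm, 10 sec intervals, 10 min total.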

PAM1154/KPC-2 = assay: Biapenem potentiation in PAM1154/KPC-2 (MexAB-OprM lacking); format: cell-based, Pseudomonas aeruginosa
Protocol: Efflux of BLIs from Pseudomonas aeruginosa by the MexAB-OprM efflux pump was also evaluated. […] Due to expression of KPC-2 both strains became resistant to biapenem. […] Potency of BLIs to potentiate biapenem in these strains was determined. […] The ratio of MPC64 values for each BLI in PAM1032/KPC-2 (efflux proficient) and PAM1154/KPC-2 (efflux deficient) was determined to generate the Efflux Index (EI).

Chymotrypsin = molecular target: T1, Chymotrypsin (Bos taurus, UniProt P00766); assay: Serine protease inhibition: chymotrypsin; format: biochemical, mammalian; settings: Table 8A, class symbols; read-out: IC50 Chymotrypsin
T1 construct: purchased Calbiochem 230832
Protocol: (§2) The effect of selected BLIs on the enzymatic activity of some common mammalian serine proteases was evaluated.
(§3) 50 μl of the diluted enzyme was mixed with 50 μl of inhibitor at various concentrations and 50 μl of corresponding buffer (Table 7). Reaction mixtures were incubated for 10 min at 37° C. Subsequently, 50 μl of corresponding substrate (Table 7) was added and absorbance or fluorescence was monitored for 30 min on SpectraMax M2 plate reader (Molecular Devices). 4-(2-Aminoethyl)benzenesulfonyl fluoride hydrochloride (AEBSF) and leupeptin were used as positive controls. Rates of reaction were calculated and presented relative to “no treatment” control.

Thrombin = molecular target: T2, Thrombin (Homo sapiens, UniProt P00734); assay: Serine protease inhibition: thrombin; format: biochemical, mammalian; settings: Table 8A, class symbols; read-out: IC50 Thrombin
T2 construct: Thrombin; MPBio; 19491880; purchased MPBio 19491880
Protocol: as §2, §3

Elastase = molecular target: T3, Elastase (Sus scrofa, UniProt P00772); assay: Serine protease inhibition: elastase; format: biochemical, mammalian; settings: Table 8A, class symbols; read-out: IC50 Elastase
T3 construct: purchased Calbiochem 324682
Protocol: as §2, §3

Chymase = molecular target: T4, Chymase (Homo sapiens, UniProt P23946); assay: Serine protease inhibition: chymase; format: biochemical, mammalian; settings: Table 8A, class symbols; read-out: IC50 Chymase
T4 construct: purchased Enzo Lifescience BML-SE281
T4 sequence (P23946 22-247): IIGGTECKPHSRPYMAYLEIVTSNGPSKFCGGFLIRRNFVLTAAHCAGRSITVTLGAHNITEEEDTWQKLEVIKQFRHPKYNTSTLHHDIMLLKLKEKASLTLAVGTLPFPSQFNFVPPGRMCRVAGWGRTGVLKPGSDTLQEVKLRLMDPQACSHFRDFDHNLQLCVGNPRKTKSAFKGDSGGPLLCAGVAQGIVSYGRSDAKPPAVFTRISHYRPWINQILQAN
Protocol: as §2, §3

CathepsinA = molecular target: T5, CathepsinA (Homo sapiens, UniProt P10619); assay: Serine protease inhibition: cathepsin A; format: biochemical, mammalian; settings: Table 8B; read-out: IC50 CathepsinA
T5 construct: purchased R&D Systems 1049-SE
T5 sequence (P10619 29-480): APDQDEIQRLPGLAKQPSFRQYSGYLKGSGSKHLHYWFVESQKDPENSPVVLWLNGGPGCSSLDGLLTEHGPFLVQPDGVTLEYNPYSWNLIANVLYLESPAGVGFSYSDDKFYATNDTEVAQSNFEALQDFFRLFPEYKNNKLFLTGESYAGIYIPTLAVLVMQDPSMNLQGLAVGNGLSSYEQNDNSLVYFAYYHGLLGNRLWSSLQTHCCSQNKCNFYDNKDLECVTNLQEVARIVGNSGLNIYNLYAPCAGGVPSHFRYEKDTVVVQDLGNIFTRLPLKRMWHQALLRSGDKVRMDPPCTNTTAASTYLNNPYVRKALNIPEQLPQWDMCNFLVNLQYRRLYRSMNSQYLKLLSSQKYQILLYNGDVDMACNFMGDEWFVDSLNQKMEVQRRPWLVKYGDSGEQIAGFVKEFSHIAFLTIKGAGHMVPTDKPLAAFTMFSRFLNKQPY
Procedure, shortened: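 Enzyme + inhibitor (various concns), enzyme-specific buffer, 10 min, 37° C; add matching substrate; read absorbance/fluorescence 30 min. Rates vs no-treatment control. AEBSF, leupeptin as positive controls.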

[3] = molecular target: T6, Dipeptidyl peptidase 7 (DPP7) (Homo sapiens, UniProt Q9UHL4); assay: Serine protease inhibition: DPP7; format: biochemical, mammalian; settings: Table 8B; read-out: IC50 DPP7
T6 construct: purchased R&D Systems 3438-SE
Protocol: as §2, §3

[4] = molecular target: T7, Dipeptidyl peptidase 8 (DPP8) (Homo sapiens, UniProt Q6V1X1); assay: Serine protease inhibition: DPP8; format: biochemical, mammalian; settings: Table 8B; read-out: IC50 DPP8
T7 construct: purchased BPS Bioscience 80080
Protocol: as §2, §3

[5] = molecular target: T8, Dipeptidyl peptidase 9 (DPP9) (Homo sapiens, UniProt Q86TI2); assay: Serine protease inhibition: DPP9; format: biochemical, mammalian; settings: Table 8B; read-out: IC50 DPP9
T8 construct: purchased BPS Bioscience 80090
Protocol: as §2, §3

KP1009 (CTX-M-15) = assay: Potentiation of tigemonam, strain KP1009; settings: minimum BLI concentration inhibiting growth with 4 μg/mL tigemonam
SHV-12 = SHV-12 (Klebsiella pneumoniae, UniProt P0AD64, E235K/G234S/L31Q); assay: Inhibition of nitrocefin cleavage by purified SHV-12; format: biochemical; settings: nitrocefin reporter substrate, purified enzyme; read-out: Ki (SHV-12, NCF)
Procedure, shortened: as §1

T8 sequence (Q86TI2 whole entry): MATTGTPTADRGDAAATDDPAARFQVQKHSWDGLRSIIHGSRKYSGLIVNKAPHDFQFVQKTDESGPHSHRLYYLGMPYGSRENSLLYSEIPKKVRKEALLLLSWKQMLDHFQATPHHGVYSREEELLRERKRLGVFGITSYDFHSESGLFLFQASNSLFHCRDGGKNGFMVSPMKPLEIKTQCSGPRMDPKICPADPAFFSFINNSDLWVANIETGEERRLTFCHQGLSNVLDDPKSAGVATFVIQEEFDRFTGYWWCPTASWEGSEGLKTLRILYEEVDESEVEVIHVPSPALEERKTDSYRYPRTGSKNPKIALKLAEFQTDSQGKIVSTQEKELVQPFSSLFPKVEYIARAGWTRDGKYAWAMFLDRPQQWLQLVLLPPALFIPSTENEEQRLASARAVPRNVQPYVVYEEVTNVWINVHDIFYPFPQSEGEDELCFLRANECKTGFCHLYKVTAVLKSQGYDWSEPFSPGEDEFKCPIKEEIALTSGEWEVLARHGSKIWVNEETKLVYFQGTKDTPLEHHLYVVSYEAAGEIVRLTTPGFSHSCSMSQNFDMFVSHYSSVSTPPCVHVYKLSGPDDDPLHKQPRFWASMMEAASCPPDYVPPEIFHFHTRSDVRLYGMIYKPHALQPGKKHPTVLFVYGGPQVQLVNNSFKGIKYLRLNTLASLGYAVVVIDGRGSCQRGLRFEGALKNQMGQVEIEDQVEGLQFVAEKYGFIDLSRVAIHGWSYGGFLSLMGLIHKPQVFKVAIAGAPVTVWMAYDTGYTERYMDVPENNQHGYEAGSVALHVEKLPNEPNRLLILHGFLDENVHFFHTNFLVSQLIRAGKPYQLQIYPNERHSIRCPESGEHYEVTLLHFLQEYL
T3 sequence (P00772 27-266): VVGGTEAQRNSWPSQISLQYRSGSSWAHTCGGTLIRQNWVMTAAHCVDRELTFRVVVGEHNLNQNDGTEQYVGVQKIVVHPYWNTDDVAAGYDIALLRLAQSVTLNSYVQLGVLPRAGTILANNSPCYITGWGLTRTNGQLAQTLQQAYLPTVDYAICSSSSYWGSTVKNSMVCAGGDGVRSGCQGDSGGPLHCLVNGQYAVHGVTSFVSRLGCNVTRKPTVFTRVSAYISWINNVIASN
T7 sequence (Q6V1X1 whole entry): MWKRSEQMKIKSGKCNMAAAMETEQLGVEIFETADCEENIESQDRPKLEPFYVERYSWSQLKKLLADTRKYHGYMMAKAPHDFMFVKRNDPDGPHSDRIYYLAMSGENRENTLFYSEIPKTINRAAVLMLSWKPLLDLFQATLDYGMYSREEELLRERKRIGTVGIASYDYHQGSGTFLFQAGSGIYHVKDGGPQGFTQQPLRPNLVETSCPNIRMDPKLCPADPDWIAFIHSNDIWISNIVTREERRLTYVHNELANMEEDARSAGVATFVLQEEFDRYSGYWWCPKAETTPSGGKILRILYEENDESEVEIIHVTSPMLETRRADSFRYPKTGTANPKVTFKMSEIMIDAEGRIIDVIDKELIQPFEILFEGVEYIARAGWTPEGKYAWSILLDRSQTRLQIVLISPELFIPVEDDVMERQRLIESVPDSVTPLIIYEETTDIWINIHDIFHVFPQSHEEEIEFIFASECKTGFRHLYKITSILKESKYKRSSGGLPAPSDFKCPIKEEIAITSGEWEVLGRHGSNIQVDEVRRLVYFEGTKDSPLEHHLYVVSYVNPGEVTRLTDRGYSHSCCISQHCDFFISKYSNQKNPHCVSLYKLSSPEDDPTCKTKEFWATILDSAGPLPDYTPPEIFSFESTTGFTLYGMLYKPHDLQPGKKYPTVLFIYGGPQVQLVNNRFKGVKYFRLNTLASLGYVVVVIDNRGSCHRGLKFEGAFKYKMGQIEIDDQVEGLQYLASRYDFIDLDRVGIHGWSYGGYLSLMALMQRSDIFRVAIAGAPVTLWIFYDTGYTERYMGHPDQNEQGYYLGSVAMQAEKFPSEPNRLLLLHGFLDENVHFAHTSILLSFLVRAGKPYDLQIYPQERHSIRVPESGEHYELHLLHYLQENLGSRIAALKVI
Sequence of SHV-12 (P0AD64 22-286 L31Q/G234S/E235K): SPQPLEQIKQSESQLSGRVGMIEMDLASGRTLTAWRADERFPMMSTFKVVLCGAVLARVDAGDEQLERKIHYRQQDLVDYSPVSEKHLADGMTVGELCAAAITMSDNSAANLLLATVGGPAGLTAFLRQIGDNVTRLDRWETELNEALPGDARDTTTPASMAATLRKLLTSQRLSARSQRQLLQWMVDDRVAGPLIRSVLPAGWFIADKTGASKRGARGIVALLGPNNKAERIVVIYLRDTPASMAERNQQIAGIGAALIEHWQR
Sequence of KPC-2 (Q9F663 25-293, looked up, species assumed): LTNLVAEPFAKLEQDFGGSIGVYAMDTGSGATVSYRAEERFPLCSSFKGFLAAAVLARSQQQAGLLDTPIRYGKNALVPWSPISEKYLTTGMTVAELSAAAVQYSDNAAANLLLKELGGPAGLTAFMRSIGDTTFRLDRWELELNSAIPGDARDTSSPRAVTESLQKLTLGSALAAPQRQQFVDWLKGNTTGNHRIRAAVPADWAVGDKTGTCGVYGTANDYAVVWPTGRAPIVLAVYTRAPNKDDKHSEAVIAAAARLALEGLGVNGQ

| Structure (SMILES) | AZT MPC4 CTX-M-14 KP1005 (KP1005 (CTX-M-14)) | AZT MPC4 SHV-5 ec308 (ec308 (SHV-5) [1]) | AZT MPC4 TEM-10 ec302 (ec302 (TEM-10)) | AZT MPC4 K-2 KP1004 (KP1004 (K-2)) | TIG MPC4 SHV-5 ec308 (ec308 (SHV-5) [2]) | TIG MPC4 CMY-6 EC1010 (EC1010 (CMY-6)) | Ki (KPC-2) [µM] | PAM1154/KPC-2 Biapenem MPC64 (PAM1154/KPC-2) | IC50 (Chymotrypsin) [µM] | IC50 (Thrombin) [µM] | IC50 (Elastase) [µM] | IC50 (Chymase) [µM] | IC50 (CathepsinA) [µM] | IC50 [3] [µM] | IC50 [4] [µM] | IC50 [5] [µM] | TIG MPC4 CTX-M-15 KP1009 (KP1009 (CTX-M-15)) | Ki (SHV-12) [µM] |
| --- | --- | --- | --- | --- | --- | --- | --- | --- | --- | --- | --- | --- | --- | --- | --- | --- | --- | --- |
| Nc1nnc(SCC(=O)N[C@H]2Cc3cccc(C(=O)O)c3OB2O)s1 [Compound 5, (R)-3-(2-(5-amino-1,3,4-thiadiazol-2-ylthio)acetamido)-2-hydroxy-3,4-dihydro-2H-benzo[e][1,2]oxaborinine-8-carboxylic acid] | X (key: X = MIC of less than 1 μg/mL; Y = MIC of 1 μg/mL to 10 μg/mL; Z = MIC of greater than 10 μg/mL) | X (X = MIC of less than 1 μg/mL) | Y (key: X = MIC of less than 1 μg/mL; Y = MIC of 1 μg/mL to 10 μg/mL; Z = MIC of greater than 10 μg/mL) | Y (Y = MIC of 1 μg/mL to 10 μg/mL) | Y (Y = MIC of 1 μg/mL to 10 μg/mL) | X (key: X = MIC of less than 1 μg/mL; Y = MIC of 1 μg/mL to 10 μg/mL; Z = MIC of greater than 10 μg/mL) | > 0.01 | X (key: X = Less than 10; Y = 10 to 40; Z Greater than 40) | > 800 | > 800 | > 800 | 300 to 800 | 15 to 500 | > 500 | 15 to 500 | > 500 | X (X = MIC of less than 1 μg/mL) |  |
| O=C(Cc1cccs1)N[C@H]1Cc2cccc(C(=O)O)c2OB1O [CPD A, reference compound] | Y (key: X = MIC of less than 1 μg/mL; Y = MIC of 1 μg/mL to 10 μg/mL; Z = MIC of greater than 10 μg/mL) | X (X = MIC of less than 1 μg/mL) | Y (key: X = MIC of less than 1 μg/mL; Y = MIC of 1 μg/mL to 10 μg/mL; Z = MIC of greater than 10 μg/mL) | Y (Y = MIC of 1 μg/mL to 10 μg/mL) | Y (Y = MIC of 1 μg/mL to 10 μg/mL) | X (key: X = MIC of less than 1 μg/mL; Y = MIC of 1 μg/mL to 10 μg/mL; Z = MIC of greater than 10 μg/mL) | > 0.01 | X (key: X = Less than 10; Y = 10 to 40; Z Greater than 40) | < 300 | < 300 | > 800 | < 300 | < 15 | > 500 | 15 to 500 | 15 to 500 | Y (Y = MIC of 1 μg/mL to 10 μg/mL) | < 0.001 |
| O=CN[C@H]1Cc2cccc(C(=O)O)c2OB1O [Compound 4, (R)-3-formamido-2-hydroxy-3,4-dihydro-2H-benzo[e][1,2]oxaborinine-8-carboxylic acid] | Y (key: X = MIC of less than 1 μg/mL; Y = MIC of 1 μg/mL to 10 μg/mL; Z = MIC of greater than 10 μg/mL) | Y (Y = MIC of 1 μg/mL to 10 μg/mL) | Y (key: X = MIC of less than 1 μg/mL; Y = MIC of 1 μg/mL to 10 μg/mL; Z = MIC of greater than 10 μg/mL) | X (X = MIC of less than 1 μg/mL) | Y (Y = MIC of 1 μg/mL to 10 μg/mL) | X (key: X = MIC of less than 1 μg/mL; Y = MIC of 1 μg/mL to 10 μg/mL; Z = MIC of greater than 10 μg/mL) |  | X (key: X = Less than 10; Y = 10 to 40; Z Greater than 40) | > 800 | > 800 | > 800 | > 800 | > 500 | > 500 | > 500 | > 500 | Y (Y = MIC of 1 μg/mL to 10 μg/mL) | 0.001 to 0.01 |
